Active and inactive are the calls of the source. No cut-off for these calls is given here.
How the values were obtained:
[1] = target: T1, Progesterone receptor (Homo sapiens) (UniProt P06401); experiment: Agonist activity at human PR expressed in human HepG2 cells assessed as MMTV gene promoter transactivation at 10 uM by measuring relative luciferase activity by transient transfection reporter assay relative to control; assay type: functional, cell-based
T1 sequence (whole entry): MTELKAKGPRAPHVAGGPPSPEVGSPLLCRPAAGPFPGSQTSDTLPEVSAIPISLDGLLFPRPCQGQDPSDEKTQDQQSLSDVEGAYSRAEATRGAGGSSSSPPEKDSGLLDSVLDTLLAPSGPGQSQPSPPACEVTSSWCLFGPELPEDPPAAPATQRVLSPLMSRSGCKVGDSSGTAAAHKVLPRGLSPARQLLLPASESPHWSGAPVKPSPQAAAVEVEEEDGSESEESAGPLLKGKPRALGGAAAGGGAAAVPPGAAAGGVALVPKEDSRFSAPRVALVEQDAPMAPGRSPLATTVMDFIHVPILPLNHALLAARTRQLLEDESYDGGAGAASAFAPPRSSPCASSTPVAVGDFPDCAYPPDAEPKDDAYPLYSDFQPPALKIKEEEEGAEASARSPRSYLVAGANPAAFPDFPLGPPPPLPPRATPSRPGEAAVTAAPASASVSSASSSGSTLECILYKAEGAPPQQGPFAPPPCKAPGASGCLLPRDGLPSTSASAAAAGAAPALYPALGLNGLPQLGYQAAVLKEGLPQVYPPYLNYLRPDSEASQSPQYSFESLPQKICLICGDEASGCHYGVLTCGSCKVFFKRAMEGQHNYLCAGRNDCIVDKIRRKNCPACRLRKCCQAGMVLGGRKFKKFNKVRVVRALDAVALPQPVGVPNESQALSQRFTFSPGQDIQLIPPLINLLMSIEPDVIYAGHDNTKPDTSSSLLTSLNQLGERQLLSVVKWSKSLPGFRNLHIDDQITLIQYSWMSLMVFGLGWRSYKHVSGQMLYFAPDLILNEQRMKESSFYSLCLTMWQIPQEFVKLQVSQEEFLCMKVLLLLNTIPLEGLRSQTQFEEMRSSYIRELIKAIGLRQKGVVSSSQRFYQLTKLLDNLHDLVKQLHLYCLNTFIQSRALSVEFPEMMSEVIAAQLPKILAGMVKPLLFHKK

[2] = target: T2, Bile acid receptor (Homo sapiens) (UniProt Q96RI1); experiment: Antagonist activity at human FXR expressed in human HepG2 cells assessed as upregulation of CYP7A1 gene transactivation at 100 uM by measuring relative luciferase activity by transient transfection reporter assay relative to control; assay type: functional, cell-based
T2 sequence (whole entry): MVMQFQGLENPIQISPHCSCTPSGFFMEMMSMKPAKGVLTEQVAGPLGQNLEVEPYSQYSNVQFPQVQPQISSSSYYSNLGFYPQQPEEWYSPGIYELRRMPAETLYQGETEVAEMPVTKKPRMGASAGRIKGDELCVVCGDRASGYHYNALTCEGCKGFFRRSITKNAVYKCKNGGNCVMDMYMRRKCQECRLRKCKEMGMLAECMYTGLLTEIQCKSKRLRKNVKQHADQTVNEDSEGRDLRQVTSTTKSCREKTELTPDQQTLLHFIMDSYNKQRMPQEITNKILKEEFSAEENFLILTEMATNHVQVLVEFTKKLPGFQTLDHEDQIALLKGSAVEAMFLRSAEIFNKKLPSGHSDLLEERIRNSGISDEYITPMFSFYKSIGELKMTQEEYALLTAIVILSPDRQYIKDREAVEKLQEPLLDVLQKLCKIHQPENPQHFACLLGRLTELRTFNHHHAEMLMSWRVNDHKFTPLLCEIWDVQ

[3] = target: T2, Bile acid receptor (Homo sapiens); experiment: Antagonist activity at human FXR expressed in human HepG2 cells assessed as upregulation of CYP7A1 gene transactivation at 10 uM by measuring relative luciferase activity by transient transfection reporter assay relative to control; assay type: functional, cell-based
[4] = target: T2, Bile acid receptor (Homo sapiens); experiment: Antagonist activity at human FXR expressed in human HepG2 cells assessed as inhibition of CDCA-induced transactivation of SHP gene by measuring relative luciferase activity by transient transfection reporter assay relative to control; assay type: functional, cell-based
[5] = target: T2, Bile acid receptor (Homo sapiens); experiment: Antagonist activity at human FXR expressed in human HepG2 cells assessed as inhibition of CDCA-induced transactivation of SHP gene at 50 uM by measuring relative luciferase activity by transient transfection reporter assay relative to control; assay type: functional, cell-based
[6] = target: T2, Bile acid receptor (Homo sapiens); experiment: Antagonist activity at human FXR expressed in human HepG2 cells assessed as inhibition of CDCA-induced transactivation of SHP gene at 100 uM by measuring relative luciferase activity by transient transfection reporter assay relative to control; assay type: functional, cell-based
[7] = target: T2, Bile acid receptor (Homo sapiens); experiment: Agonist activity at human FXR expressed in human HepG2 cells assessed as transactivation of SHP gene at 400 uM by measuring relative luciferase activity by transient transfection reporter assay; assay type: functional, cell-based
[8] = target: T2, Bile acid receptor (Homo sapiens); experiment: Antagonist activity at human FXR expressed in human HepG2 cells assessed as inhibition of CDCA-induced transactivation of SHP gene at 10 uM by measuring relative luciferase activity by transient transfection reporter assay relative to control; assay type: functional, cell-based
[9] = target: T1, Progesterone receptor (Homo sapiens); experiment: Agonist activity at human PR expressed in human HepG2 cells assessed as MMTV gene promoter transactivation at 100 uM by measuring relative luciferase activity by transient transfection reporter assay relative to control; assay type: functional, cell-based
[10] = target: Cellular tumor antigen p53 (Homo sapiens) (UniProt P04637); experiment: Transactivation of p53 in human HepG2 cells expressing MDM2 promoter by transient transfection reporter assay; assay type: cell-based
Chain of Cellular tumor antigen p53 (Homo sapiens) (P04637 whole entry, looked up): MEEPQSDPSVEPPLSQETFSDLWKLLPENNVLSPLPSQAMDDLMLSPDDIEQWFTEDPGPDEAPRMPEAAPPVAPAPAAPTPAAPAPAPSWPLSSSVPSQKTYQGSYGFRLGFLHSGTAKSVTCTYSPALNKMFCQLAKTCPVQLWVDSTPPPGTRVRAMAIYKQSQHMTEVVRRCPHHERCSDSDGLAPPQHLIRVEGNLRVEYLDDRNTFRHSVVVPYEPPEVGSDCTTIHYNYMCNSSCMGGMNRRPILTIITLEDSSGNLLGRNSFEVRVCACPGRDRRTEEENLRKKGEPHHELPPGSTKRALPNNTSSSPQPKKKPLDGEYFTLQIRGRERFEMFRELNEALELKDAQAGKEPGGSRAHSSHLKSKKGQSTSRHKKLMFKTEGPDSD

HepG2 = experiment: Cytotoxicity against human HepG2 cells; assay type: cell-based

SMILES	RLU [1]	fold change (FC) [2]	fold change (FC) [3]	inhibition [4]	inhibition [5] [%]	RLU [6]	Activity [7]	RLU [8]	Activity [9]	RLU [9]	Activity [10]	Activity (HepG2)
CC(=O)[C@H]1CC[C@H]2[C@@H]3CCC4=CC(=O)CC[C@]4(C)[C@H]3CC[C@]12C	2.38											
C=C1CCC[C@]2(C)C[C@@H]3OC(=O)C(C)=C3C[C@@H]12		2	1.5	Dose-dependent effect	50	0.9	inactive	1.5	inactive			
C=C1CCC[C@]2(C)C[C@]3(O)OC(=O)C(C)=C3C[C@@H]12	1.57		1.5	Dose-dependent effect	50	0.85	inactive	1.7		3.39		
C=C1CCC[C@]2(C)C=C3OC(=O)C(C)=C3C[C@@H]12 [ATRACTYLENOLIDE I]											Active	Toxic
